Measured values as given in the kinase profiling compilation of Christmann-Franck et al. (2016).

Key:
Assay in all cases: radiometric filter-binding kinase assay, Kinase HotSpot
Details in all cases: compound 0.5 µM; ATP 10 µM
[1] = molecular target: CSNK1G2 (human) (UniProt P78368)
[2] = molecular target: PIM2 (human) (UniProt Q9P1W9)
[3] = molecular target: CAMK2D (human) (UniProt Q13557)
[4] = molecular target: IKBKB (human) (UniProt O14920)
[5] = molecular target: RET (human) (UniProt P07949)
[6] = molecular target: TSSK2 (human) (UniProt Q96PF2)
[7] = molecular target: OXSR1 (human) (UniProt O95747)
Chain of OXSR1 (human) (O95747 whole entry, looked up): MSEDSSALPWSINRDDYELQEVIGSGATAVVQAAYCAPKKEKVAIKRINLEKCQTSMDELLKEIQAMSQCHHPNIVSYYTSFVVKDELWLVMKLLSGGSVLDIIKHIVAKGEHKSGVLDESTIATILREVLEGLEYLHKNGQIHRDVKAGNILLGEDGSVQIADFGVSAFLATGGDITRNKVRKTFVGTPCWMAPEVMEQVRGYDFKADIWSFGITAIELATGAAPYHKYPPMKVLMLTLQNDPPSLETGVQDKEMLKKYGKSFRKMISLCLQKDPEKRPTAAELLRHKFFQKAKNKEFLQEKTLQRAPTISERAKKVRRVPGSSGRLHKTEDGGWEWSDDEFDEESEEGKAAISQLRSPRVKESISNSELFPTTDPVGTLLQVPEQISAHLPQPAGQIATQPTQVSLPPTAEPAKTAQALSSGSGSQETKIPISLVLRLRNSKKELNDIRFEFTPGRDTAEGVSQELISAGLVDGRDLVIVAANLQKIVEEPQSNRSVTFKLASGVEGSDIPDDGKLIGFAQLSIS

[8] = molecular target: NEK11 (human) (UniProt Q8NG66)
[9] = molecular target: NEK7 (human) (UniProt Q8TDX7)
[10] = molecular target: MAP4K4 (human) (UniProt O95819)
[11] = molecular target: PAK1 (human) (UniProt Q13153)
Chain of PAK1 (human) (Q13153 whole entry, looked up): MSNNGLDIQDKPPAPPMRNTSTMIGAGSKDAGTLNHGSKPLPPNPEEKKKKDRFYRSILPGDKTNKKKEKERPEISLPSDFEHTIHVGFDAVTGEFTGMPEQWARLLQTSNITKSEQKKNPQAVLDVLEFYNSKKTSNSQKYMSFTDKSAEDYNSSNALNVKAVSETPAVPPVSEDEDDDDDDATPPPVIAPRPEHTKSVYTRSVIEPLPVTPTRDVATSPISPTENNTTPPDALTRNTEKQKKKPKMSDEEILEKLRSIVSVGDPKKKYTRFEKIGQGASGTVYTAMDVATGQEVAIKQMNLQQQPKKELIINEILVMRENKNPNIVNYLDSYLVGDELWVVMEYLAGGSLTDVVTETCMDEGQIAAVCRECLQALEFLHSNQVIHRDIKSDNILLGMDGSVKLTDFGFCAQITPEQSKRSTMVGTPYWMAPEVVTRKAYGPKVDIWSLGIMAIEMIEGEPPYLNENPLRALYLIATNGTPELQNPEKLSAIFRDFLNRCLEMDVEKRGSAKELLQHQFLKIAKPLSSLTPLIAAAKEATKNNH

[12] = molecular target: RPS6KB2 (human) (UniProt Q9UBS0)
[13] = molecular target: CAMK1G (human) (UniProt Q96NX5)
Chain of CAMK1G (human) (Q96NX5 whole entry, looked up): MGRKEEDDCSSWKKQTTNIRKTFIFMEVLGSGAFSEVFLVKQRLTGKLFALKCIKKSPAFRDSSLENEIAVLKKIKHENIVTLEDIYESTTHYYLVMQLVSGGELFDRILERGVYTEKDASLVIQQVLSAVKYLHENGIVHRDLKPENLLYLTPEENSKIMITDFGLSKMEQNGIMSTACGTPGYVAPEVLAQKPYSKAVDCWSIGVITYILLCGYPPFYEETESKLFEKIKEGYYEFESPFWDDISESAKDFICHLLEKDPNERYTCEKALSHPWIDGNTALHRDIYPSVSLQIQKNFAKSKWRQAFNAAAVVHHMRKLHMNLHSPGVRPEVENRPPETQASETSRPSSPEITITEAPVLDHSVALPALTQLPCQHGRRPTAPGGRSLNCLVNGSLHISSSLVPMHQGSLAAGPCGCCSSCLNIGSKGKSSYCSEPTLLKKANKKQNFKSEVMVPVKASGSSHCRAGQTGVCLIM

[14] = molecular target: TAOK2 (human) (UniProt Q9UL54)
[15] = molecular target: GSK3B (human) (UniProt P49841)
[16] = molecular target: ADRBK1 (human) (UniProt P25098)
Chain of ADRBK1 (human) (P25098 whole entry, looked up): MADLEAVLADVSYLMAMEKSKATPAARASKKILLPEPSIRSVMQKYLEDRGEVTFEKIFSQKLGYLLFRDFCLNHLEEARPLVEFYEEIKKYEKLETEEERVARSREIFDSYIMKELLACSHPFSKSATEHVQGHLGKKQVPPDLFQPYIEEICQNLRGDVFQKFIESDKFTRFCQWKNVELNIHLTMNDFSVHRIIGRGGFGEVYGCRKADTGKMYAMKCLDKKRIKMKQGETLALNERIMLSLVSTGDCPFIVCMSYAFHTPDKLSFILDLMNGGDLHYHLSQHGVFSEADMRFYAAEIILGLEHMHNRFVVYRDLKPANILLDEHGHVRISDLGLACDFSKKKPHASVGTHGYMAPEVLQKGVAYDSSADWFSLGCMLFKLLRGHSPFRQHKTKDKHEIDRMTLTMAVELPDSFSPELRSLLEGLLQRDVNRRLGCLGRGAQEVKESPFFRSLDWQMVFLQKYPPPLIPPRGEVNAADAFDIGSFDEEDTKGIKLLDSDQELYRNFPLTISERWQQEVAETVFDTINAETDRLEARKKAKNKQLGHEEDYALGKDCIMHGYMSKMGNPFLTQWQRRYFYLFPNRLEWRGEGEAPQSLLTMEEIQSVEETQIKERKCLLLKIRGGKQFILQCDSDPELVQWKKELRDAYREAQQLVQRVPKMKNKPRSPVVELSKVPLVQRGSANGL

[17] = molecular target: FES (human) (UniProt P07332)
[18] = molecular target: FRK (human) (UniProt P42685)
[19] = molecular target: MUSK (human) (UniProt O15146)
[20] = molecular target: MST4 (human) (UniProt Q9P289)
[21] = molecular target: PTK2B (human) (UniProt Q14289)
[22] = molecular target: IKBKE (human) (UniProt Q14164)
[23] = molecular target: MATK (human) (UniProt P42679)
Chain of MATK (human) (P42679 whole entry, looked up): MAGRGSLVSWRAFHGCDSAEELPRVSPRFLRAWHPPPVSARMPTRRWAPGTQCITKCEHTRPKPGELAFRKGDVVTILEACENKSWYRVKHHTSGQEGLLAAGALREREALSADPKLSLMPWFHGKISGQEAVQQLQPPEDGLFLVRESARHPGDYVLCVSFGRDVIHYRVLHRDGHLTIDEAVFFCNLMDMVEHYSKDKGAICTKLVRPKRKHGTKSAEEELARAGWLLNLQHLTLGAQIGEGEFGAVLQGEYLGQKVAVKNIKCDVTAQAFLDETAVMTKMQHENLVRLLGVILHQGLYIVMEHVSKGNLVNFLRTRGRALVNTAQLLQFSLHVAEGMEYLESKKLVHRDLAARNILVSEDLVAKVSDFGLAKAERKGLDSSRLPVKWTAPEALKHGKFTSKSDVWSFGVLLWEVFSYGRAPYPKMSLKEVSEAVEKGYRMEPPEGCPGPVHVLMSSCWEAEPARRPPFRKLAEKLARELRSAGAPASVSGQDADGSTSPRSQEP

[24] = molecular target: NEK9 (human) (UniProt Q8TD19)
[25] = molecular target: PTK2 (human) (UniProt Q05397)
[26] = molecular target: EPHA1 (human) (UniProt P21709)
[27] = molecular target: NUAK1 (human) (UniProt O60285)
[28] = molecular target: PTK6 (human) (UniProt Q13882)
[29] = molecular target: PAK3 (human) (UniProt O75914)
Chain of PAK3 (human) (O75914 whole entry, looked up): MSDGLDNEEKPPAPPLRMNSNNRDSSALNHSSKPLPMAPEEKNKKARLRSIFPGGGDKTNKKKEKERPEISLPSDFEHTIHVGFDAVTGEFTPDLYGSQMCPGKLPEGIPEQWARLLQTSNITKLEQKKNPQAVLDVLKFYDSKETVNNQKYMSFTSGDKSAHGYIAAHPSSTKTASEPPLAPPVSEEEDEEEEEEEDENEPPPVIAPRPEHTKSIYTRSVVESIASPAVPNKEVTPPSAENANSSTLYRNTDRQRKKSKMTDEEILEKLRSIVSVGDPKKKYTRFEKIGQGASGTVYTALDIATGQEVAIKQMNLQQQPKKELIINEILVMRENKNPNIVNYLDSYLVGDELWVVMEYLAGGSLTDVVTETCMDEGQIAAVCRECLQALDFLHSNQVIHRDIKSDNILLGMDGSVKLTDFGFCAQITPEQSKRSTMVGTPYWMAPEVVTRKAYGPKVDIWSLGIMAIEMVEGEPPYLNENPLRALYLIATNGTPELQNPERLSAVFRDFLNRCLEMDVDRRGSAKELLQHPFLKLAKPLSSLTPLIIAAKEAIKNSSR

[30] = molecular target: MAPK9 (human) (UniProt P45984)
[31] = molecular target: STK3 (human) (UniProt Q13188)
[32] = molecular target: STK11 (human) (UniProt Q15831)
Chain of STK11 (human) (Q15831 whole entry, looked up): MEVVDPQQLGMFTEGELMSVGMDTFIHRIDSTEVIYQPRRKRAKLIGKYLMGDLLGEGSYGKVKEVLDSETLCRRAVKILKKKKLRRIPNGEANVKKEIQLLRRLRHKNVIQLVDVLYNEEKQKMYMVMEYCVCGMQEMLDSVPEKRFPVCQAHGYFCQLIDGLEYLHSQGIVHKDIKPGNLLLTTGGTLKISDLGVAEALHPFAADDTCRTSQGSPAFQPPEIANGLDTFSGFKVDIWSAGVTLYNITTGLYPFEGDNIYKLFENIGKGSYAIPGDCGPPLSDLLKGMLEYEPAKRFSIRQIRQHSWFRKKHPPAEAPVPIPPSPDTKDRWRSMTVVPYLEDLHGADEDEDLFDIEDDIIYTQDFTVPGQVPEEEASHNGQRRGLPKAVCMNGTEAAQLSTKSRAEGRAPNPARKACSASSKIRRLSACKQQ

[33] = molecular target: DYRK1B (human) (UniProt Q9Y463)
[34] = molecular target: PRKCD (human) (UniProt Q05655)
[35] = molecular target: CAMK2G (human) (UniProt Q13555)
[36] = molecular target: ULK1 (human) (UniProt O75385)
[37] = molecular target: EPHA7 (human) (UniProt Q15375)
[38] = molecular target: MARK1 (human) (UniProt Q9P0L2)
[39] = molecular target: CDC42BPA (human) (UniProt Q5VT25)
[40] = molecular target: MET (human) (UniProt P08581)
[41] = molecular target: ROCK2 (human) (UniProt O75116)
[42] = molecular target: SRMS (human) (UniProt Q9H3Y6)
Chain of SRMS (human) (Q9H3Y6 whole entry, looked up): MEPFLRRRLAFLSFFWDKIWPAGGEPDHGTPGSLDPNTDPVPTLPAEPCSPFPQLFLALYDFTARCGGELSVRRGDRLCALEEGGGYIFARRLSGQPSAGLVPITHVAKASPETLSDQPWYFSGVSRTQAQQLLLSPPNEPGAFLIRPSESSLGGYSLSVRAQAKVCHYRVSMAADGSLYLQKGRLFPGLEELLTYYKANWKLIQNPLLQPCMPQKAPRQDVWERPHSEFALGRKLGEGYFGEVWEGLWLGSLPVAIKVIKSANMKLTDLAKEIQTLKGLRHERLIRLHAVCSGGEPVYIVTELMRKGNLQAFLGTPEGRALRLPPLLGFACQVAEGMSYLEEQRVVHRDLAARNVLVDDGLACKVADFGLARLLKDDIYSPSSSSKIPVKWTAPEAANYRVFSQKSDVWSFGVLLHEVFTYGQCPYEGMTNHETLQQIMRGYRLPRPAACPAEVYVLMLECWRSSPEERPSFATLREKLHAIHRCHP

Chain of CAMK2D (human) (Q13557 whole entry, looked up): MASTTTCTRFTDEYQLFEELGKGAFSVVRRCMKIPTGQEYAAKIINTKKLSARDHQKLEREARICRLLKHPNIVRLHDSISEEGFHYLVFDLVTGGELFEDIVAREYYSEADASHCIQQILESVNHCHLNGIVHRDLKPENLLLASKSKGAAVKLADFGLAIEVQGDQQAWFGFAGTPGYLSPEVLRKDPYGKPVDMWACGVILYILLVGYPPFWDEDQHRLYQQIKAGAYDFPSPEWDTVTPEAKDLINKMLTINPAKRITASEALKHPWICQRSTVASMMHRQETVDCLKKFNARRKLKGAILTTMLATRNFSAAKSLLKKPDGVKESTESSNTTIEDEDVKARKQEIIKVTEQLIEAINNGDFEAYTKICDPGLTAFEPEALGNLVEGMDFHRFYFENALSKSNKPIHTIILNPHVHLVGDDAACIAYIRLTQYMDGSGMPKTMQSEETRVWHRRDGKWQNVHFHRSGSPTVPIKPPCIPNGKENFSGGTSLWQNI

Work on `CCCNC(=O)Nc1ccc(Oc2ncnc3cc(OC)c(OC)cc23)cc1Cl` yielded a residual activity [1] of 84.8%, a residual activity [2] of 101% and a residual activity [3] of 89.4%. It also gave a residual activity [4] of 100%, a residual activity [5] of 8.42% and a residual activity [6] of 98.7%. The residual activity [7] was 96.5%, the residual activity [8] was 101% and the residual activity [9] was 103%. It also gave a residual activity [10] of 86.4%, a residual activity [11] of 93.8% and a residual activity [12] of 104%. It also gave a residual activity [13] of 103%, a residual activity [14] of 94.5% and a residual activity [15] of 91.3%. For the same molecule, the residual activity [16] was 103%, the residual activity [17] was 96% and the residual activity [18] was 87.2%. The residual activity [19] was 101%, the residual activity [20] was 86.9% and the residual activity [21] was 88%. It also gave a residual activity [22] of 93.5%, a residual activity [23] of 96.8% and a residual activity [24] of 83.3%. For the same molecule, the residual activity [25] was 99.6%, the residual activity [26] was 96.9% and the residual activity [27] was 92.3%. For the same molecule, the residual activity [28] was 48.3%, the residual activity [29] was 94.7% and the residual activity [30] was 104%. The residual activity [31] was 85%, the residual activity [32] was 87.3% and the residual activity [33] was 104%. It also gave a residual activity [34] of 90.1%, a residual activity [35] of 90.5% and a residual activity [36] of 83.2%. The residual activity [37] was 86.3%, the residual activity [38] was 97.6% and the residual activity [39] was 77.8%. It also gave a residual activity [40] of 73.6%, a residual activity [41] of 97.7% and a residual activity [42] of 105%.

Work on `Cc1ccc(NC(=O)c2ccc(CN3CCN(C)CC3)cc2)cc1Nc1nc(-c2cccnc2)cs1` yielded a residual activity [1] of 92.9%, a residual activity [2] of 118% and a residual activity [3] of 106%. The residual activity [4] was 97.8%, the residual activity [5] was 96.4% and the residual activity [6] was 102%. For the same molecule, the residual activity [7] was 95.6%, the residual activity [8] was 95.1% and the residual activity [9] was 96.3%. For the same molecule, the residual activity [10] was 72.2%, the residual activity [11] was 104% and the residual activity [12] was 101%. The residual activity [13] was 106%, the residual activity [14] was 91.6% and the residual activity [16] was 121%. The residual activity [17] was 105%, the residual activity [19] was 99% and the residual activity [20] was 97%. For the same molecule, the residual activity [21] was 98.9%, the residual activity [22] was 97.2% and the residual activity [23] was 85.9%. For the same molecule, the residual activity [24] was 98.6%, the residual activity [25] was 98.6% and the residual activity [26] was 96.5%. The residual activity [27] was 110%, the residual activity [28] was 79.2% and the residual activity [29] was 106%. The residual activity [30] was 110%, the residual activity [31] was 94.4% and the residual activity [32] was 102%. For the same molecule, the residual activity [33] was 95.7%, the residual activity [34] was 97.9% and the residual activity [35] was 98.6%. It also gave a residual activity [36] of 97.7%, a residual activity [37] of 99.7% and a residual activity [38] of 86.9%. It also gave a residual activity [39] of 104%, a residual activity [40] of 104% and a residual activity [41] of 95.1%. It also gave a residual activity [42] of 92.9%.

For `CSc1nc(-c2ccc(F)cc2)c(-c2ccnc(NC(C)c3ccccc3)c2)[nH]1` (stereo not drawn), the residual activity [1] was 75.6%, the residual activity [2] was 87.9% and the residual activity [3] was 99.3%. It also gave a residual activity [5] of 101%, a residual activity [6] of 78.2% and a residual activity [7] of 88.2%. It also gave a residual activity [8] of 108%, a residual activity [9] of 89.6% and a residual activity [10] of 91.6%. For the same molecule, the residual activity [11] was 97.7%, the residual activity [12] was 92.8% and the residual activity [13] was 98.3%. The residual activity [14] was 92.7%, the residual activity [15] was 97.9% and the residual activity [16] was 102%. For the same molecule, the residual activity [17] was 93.8%, the residual activity [18] was 100% and the residual activity [19] was 101%. It also gave a residual activity [20] of 101%, a residual activity [21] of 100% and a residual activity [22] of 84%. For the same molecule, the residual activity [23] was 87%, the residual activity [24] was 89.4% and the residual activity [25] was 99.1%. The residual activity [26] was 89.8%, the residual activity [27] was 94.3% and the residual activity [28] was 96.8%. The residual activity [29] was 94.5%, the residual activity [30] was 31.1% and the residual activity [31] was 88.8%. For the same molecule, the residual activity [32] was 95.4%, the residual activity [33] was 84.6% and the residual activity [34] was 89.1%. It also gave a residual activity [35] of 102%, a residual activity [36] of 110% and a residual activity [37] of 102%. For the same molecule, the residual activity [38] was 95.3%, the residual activity [39] was 97.5% and the residual activity [40] was 116%. It also gave a residual activity [41] of 95.3% and a residual activity [42] of 104%.
